Active and inactive are the calls of the source. The calls are words filed in the database; no cut-off is given here.
Experiments:
DNA polymerase beta [1] = target: T1, DNA polymerase beta (Rattus norvegicus, UniProt P06766); assay: Activity of rat recombinant DNA polymerase beta using variable levels of DNA template-primer
DNA polymerase beta [2] = target: T1, DNA polymerase beta; assay: Inhibition of rat recombinant DNA polymerase beta in absence of bovine serum albumin
Escherichia coli [3] = assay: Induction of strand scission activity in Escherichia coli supercoiled pSP64 DNA assessed as relaxation of DNA at 10 µM by agarose gel electrophoresis in presence of Cu2+
DNA polymerase beta [4] = target: T1, DNA polymerase beta; assay: Inhibition of rat recombinant DNA polymerase beta in presence of bovine serum albumin
[5] = target: DNA polymerase beta (Rattus norvegicus) (UniProt P06766); assay: Activity of rat recombinant DNA polymerase beta using variable levels of dNTP concentration
[6] = Potentiation of bleomycin-induced cytotoxicity against mouse P388D1 cells assessed as reduction in cell viability at 9 uM after 6 hrs by trypan blue exclusion test; type: functional
Escherichia coli [7] = assay: Induction of strand scission activity in Escherichia coli supercoiled pSP64 DNA assessed as relaxation of DNA after 1 hr by agarose gel electrophoresis in presence of Cu2+

Row | Ki (DNA polymerase beta [1]) | IC50 (DNA polymerase beta [2]) | Activity (Escherichia coli [3]) | IC50 (DNA polymerase beta [4]) | Kii [5] | Kis [5] | Activity (Escherichia coli [7]) | Compound | Activity [6]
1 | 12 µM | 1.2 µM | Active | 4.3 µM | 0.8 µM | 23 µM | Dose-dependent effect | O=C(CCCCCCCCc1ccccc1)c1c(O)cc(O)c([C@@H]2C[C@@H](c3ccc(O)cc3)Oc3cc(O)ccc32)c1O | 30%
2 | 11 µM | 2.7 µM | Active | 12 µM | 4.3 µM | 8.2 µM | Dose-dependent effect | CCCCCCCCCCCC(=O)c1c(O)cc(O)c([C@@H]2C[C@@H](c3ccc(O)cc3)Oc3cc(O)ccc32)c1O | 30%

— ChEMBL document CHEMBL1158828, “(+)-Myristinins A and D from Knema elegans, which inhibit DNA polymerase beta and cleave DNA” (J Nat Prod, 2005)
